Reference: patent US20250352606A1, “Pharmaceutical Composition for Promoting Neurogenesis and Method of Utilizing Gastrodia Elata Extract or Adenosine Analog for Promoting Neurogenesis” (AXR Pharma Inc., priority 2019, published 2025)

Key:
[1] = tested on: BrdU and DCX-expressing cells in the hippocampus; assay: Neurogenesis markers BrdU and DCX in hippocampus of D-galactose-induced mice (immunostaining); assay type: in vivo
Protocol: (§1) A total of nine groups with 6 each animal experiments were conducted. The animals in groups 1-9 were: 1: blank control group, 2: D-galactose (0.2 g/kg), 3: D-galactose (0.2 g/kg)+vitamin E (100 mg/kg), 4: D-galactose (0.2 g/kg)+TM1-2 low dose (5 mg/kg), 5: D-galactose (0.2 g kg)+TM1-2 mid-dose group (20 mg/kg), 6: D-galactose (0.2 g/kg)+TM1-2 high dose group (50 mg/kg), 7: D-galactose (0.2 g/kg)+T1-11 low dose group (1 mg/Kg), 8: D-galactose (0.2 g/kg)+T1-11 high dose group (10 mg/kg), 9: T1-11 (10 mg/kg). D-galactose was treated by subcutaneous injection (0.2 g/kg body weight), and G. elata extract TM1-2, T1-11 and vitamin E were orally administrated (oral gavage). The test substances were treated once a day, continuing for 6 weeks. When administering, in addition to the blank control group, each group was continued to treat with 0.2 g/kg (body weight) D-galactose subcutaneously injected via back neck, and the blank control group was subcutaneously injected with physiological saline. […]
After observing the behavior, the animals of Example 6 are intraperitoneally injected with […] 5-bromo-2′-deoxyuridine (BrdU) continuously for a week. […] The sections were immunohistochemically stained by first reacting with the first antibody, doublecortin (DCX) (purchased from Abcam) and then with a fluorescence-labeled secondary antibody (purchased from Jackson Labs Technologies, Inc). […]

[2] = tested on: D-galactose-induced aging mice; assay: Nesting test and burrowing test in D-galactose-induced aging mice; assay type: in vivo; details: D-galactose 0.2 g/kg s.c.; test substance oral gavage once a day for 6 weeks
Protocol: as §1
In the Nesting Test (Deacon R (2012), Deacon RM (2006)), mice were given nesting materials, and they made nests in the corners of the cage and stayed in the nest. By using the nature of mouse nesting, nest cotton swabs were given, the scores of completing nesting were calculated, and the weight of the remaining unbroken cotton was weighed to assess the degree of mouse aging (FIGS. 5A and 5B). […]

[3] = tested on: glutathione peroxidase (GSH-Px); assay: Glutathione peroxidase in serum and brain tissue of D-galactose-treated animals; assay type: in vivo, mice; details: serum, cortex and hippocampus; galactose-induced animals
Protocol: as §1, with “saline. The vitamin E group was used as a positive control group. After observing their behavior, the animals are intraperitoneally injected with […] 5-bromo-2′-deoxyuridine (BrdU) continuously for one week. Then the animals were sacrificed to take their brain tissue and blood.” for “saline.”

[4] = tested on: catalase (CAT); assay: Catalase activity in serum and brain tissue of D-galactose-treated animals; assay type: in vivo, mice; details: serum, cortex and hippocampus; galactose-induced animals
Protocol: as §1, with “saline. The vitamin E group was used as a positive control group. After observing their behavior, the animals are intraperitoneally injected with […] 5-bromo-2′-deoxyuridine (BrdU) continuously for one week. Then the animals were sacrificed to take their brain tissue and blood.” for “saline.”

[5] = tested on: SH-SY5Y cells; assay: SA-β-gal staining of senescence SH-SY5Y cells; assay type: cell-based; details: senescence SH-SY5Y cells treated for 24 hours
Protocol: SH-SY5Y cells (purchased from Taiwan and Bioresource Collection and Research Center (BCRC), 08C0066) was cultured in DMEM containing 10% fetal bovine serum, 100 U/ml penicillin and 100 µg/ml streptomycin in a carbon dioxide incubator. When SH-SY5Y cells were grown in a 100 mm culture dish to a fullness of 80%, subculture was carried out. […] Thus, the intracellular amount of SA-β-gal in the test cells were used as an indicator of cell senescence. These senescence cells were then used to perform the following aging-related cell experiments.
The senescence SH-SY5Y cells in embodiment 3 were treated with the G. elata crude extract TM1, the G. elata extract TM1-2 and N^6-(4-hydroxybenzyl) adenosine (T1-11) for 24 hours, then fixed with 4% formaldehyde, following by staining with SA-β-gal to evaluate the cell senescence level. […] Furthermore, the mechanism of cell senescence is currently known to be driven by two independent pathways, p53-p21 pathway and p16-Rb pathway. Both p21 and p16 are cyclin-dependent kinase inhibitors (CDKI), which prevent Rb from being phosphorylated so as to inhibit Rb. Consequently, the activity of E2F transcription factors is inhibited and the cell cycle is therefore blocked. p53, p63 and p73 can directly induce the activation of p21 protein, leading to arrest in cell cycle and cellular senescence.

[6] = tested on: superoxide dismutase (SOD); assay: Superoxide dismutase activity in serum and brain tissue of D-galactose-treated animals; assay type: in vivo, mice; details: serum, cortex and hippocampus; galactose-induced animals
Protocol: as §1, with “saline. The vitamin E group was used as a positive control group. After observing their behavior, the animals are intraperitoneally injected with […] 5-bromo-2′-deoxyuridine (BrdU) continuously for one week. Then the animals were sacrificed to take their brain tissue and blood.” for “saline.”

[7] = tested on: lipid peroxidation (malondialdehyde, MDA); assay: Lipid peroxidation in serum and brain tissue of D-galactose-treated animals; assay type: in vivo, mice; details: serum, cortex and hippocampus; galactose-induced animals
Protocol: as §1, with “saline. The vitamin E group was used as a positive control group. After observing their behavior, the animals are intraperitoneally injected with […] 5-bromo-2′-deoxyuridine (BrdU) continuously for one week. Then the animals were sacrificed to take their brain tissue and blood.” for “saline.”

[8] = tested on: p53, p16, p21 protein expression; assay: Cellular senescence related molecules (p53, p16, p21) in SH-SY5Y cells; assay type: cell-based
[9] = tested on: glucose-6-phosphate dehydrogenase (G6PD); assay: Glucose-6-phosphate dehydrogenase in serum and brain tissue of D-galactose-treated animals; assay type: in vivo, mice; details: serum, cortex and hippocampus; galactose-induced animals
Protocol: as §1, with “saline. The vitamin E group was used as a positive control group. After observing their behavior, the animals are intraperitoneally injected with […] 5-bromo-2′-deoxyuridine (BrdU) continuously for one week. Then the animals were sacrificed to take their brain tissue and blood.” for “saline.”

[10] = tested on: D-galactose-induced aging mice; assay: Morris water maze test in D-galactose-induced aging mice; assay type: in vivo; details: D-galactose 0.2 g/kg s.c.; test substance oral gavage once a day for 6 weeks
Protocol: A total of nine groups with 6 each animal experiments were conducted. The animals in groups 1-9 were: 1: blank control group, 2: D-galactose (0.2 g/kg), 3: D-galactose (0.2 g/kg)+vitamin E (100 mg/kg), 4: D-galactose (0.2 g/kg)+TM1-2 low dose (5 mg/kg), 5: D-galactose (0.2 g kg)+TM1-2 mid-dose group (20 mg/kg), 6: D-galactose (0.2 g/kg)+TM1-2 high dose group (50 mg/kg), 7: D-galactose (0.2 g/kg)+T1-11 low dose group (1 mg/Kg), 8: D-galactose (0.2 g/kg)+T1-11 high dose group (10 mg/kg), 9: T1-11 (10 mg/kg). D-galactose was treated by subcutaneous injection (0.2 g/kg body weight), and G. elata extract TM1-2, T1-11 and vitamin E were orally administrated (oral gavage). The test substances were treated once a day, continuing for 6 weeks. When administering, in addition to the blank control group, each group was continued to treat with 0.2 g/kg (body weight) D-galactose subcutaneously injected via back neck, and the blank control group was subcutaneously injected with physiological saline. The vitamin E group was used as a positive control group.
Furthermore, the memory learning ability of mice was evaluated using the Morris water maze test (Vorhees C V, et al. (2006)) (FIG. 7A and FIG. 7B).

[11] = tested on: gamma amino butyric acid (GABA) metabolism; details: An, et al (2003); cited from earlier work

Structure (SMILES)	expression of BrdU in the hippocampus [1]	expression of DCX in the hippocampus [1]	cognitive behavioral deficit: construction of nests and burrowing [2]	level of glutathione peroxidation (GSH-Px) reduced by galactose [3]	activity of catalase (CAT) [4]	intracellular SA-β-gal (cell senescence level) [5]	activity of superoxide dismutase (SOD) [6]	lipid peroxidation (malondialdehyde, MDA) [7]	p53, p16, p21 protein expression [8]	level of glucose-6-phosphate dehydrogenase (G6PD) reduced by galactose [9]	cognitive behavioral deficit incl. memory learning ability; higher dose better improvement [10]	metabolism of GABA in gerbil hippocampus [11]
OC[C@H]1O[C@@H](n2cnc3c(NCc4ccc(O)cc4)ncnc32)[C@H](O)[C@@H]1O [T1-11, N^6-(4-hydroxybenzyl) adenosine]	ameliorate the reduced expression	ameliorate the reduced expression	effectively ameliorate the animal cognitive behavioral deficit	effectively reversed	significantly repaired the reduced activity	significantly reduce SA-β-gal	significantly repaired the reduced activity	significantly repaired	inhibition of p53, p16, p21 protein expression	effectively reversed	ameliorate cognitive behavioral deficit	–
OCc1ccc(O[C@@H]2O[C@H](CO)[C@@H](O)[C@H](O)[C@H]2O)cc1 [gastrodin]	–	–	–	–	–	–	–	–	–	–	–	alter the metabolism of gamma amino butyric acid (GABA)
